Reference: US11155517B2, “4-substituted phenylamine derivatives and their use to protect crops by fighting undesired phytopathogenic micoorganisms” (PI INDUSTRIES LTD., priority 2016, dated 2021)

What was measured:
[1] = tested on: Colletotrichum capsici; assay: Colletotrichum capsici (anthracnose) in vitro test, radial growth on Potato Dextrose Agar; type: cell-based; conditions: Colletotrichum truncatum, 168 h; 300 ppm; seven days, 25° C.; read-out: % control compared to the untreated check (radial growth)
[2] = tested on: Fusarium culmorum; assay: Fusarium culmorum (foot rot of cereals) in vitro test, radial growth on Potato Dextrose Agar; type: cell-based; conditions: Fusarium culmorum, 168 h, read-out: % control compared to the untreated check (radial growth)
[3] = tested on: Botrytis cinera; assay: Greenhouse Botrytis cinera test in tomato, preventive; type: in vivo; conditions: 24 h, plants sprayed one day before inoculation, read-out: Efficacy (% control), disease severity vs untreated check
[4] = tested on: Rhizoctonia solani; assay: Rhizoctonia solani (rice sheath blight/potato black scurf) in vitro test, radial growth on Potato Dextrose Agar; type: cell-based; conditions: 168 h, 300 ppm, seven days, 25° C., read-out: % control compared to the untreated check (radial growth)
[5] = tested on: Pyricularia oryzae; assay: microbe, parasite or virus in culture; type: cell-based; conditions: 168 h, read-out: % control compared to the untreated check (radial growth)
[6] = tested on: Alternaria solani; assay: Alternaria solani (early blight of tomato/potato) in vitro test, radial growth on Potato Dextrose Agar; type: cell-based; conditions: 168 h, 300 ppm, seven days, 25° C., read-out: % control compared to the untreated check (radial growth)
[7] = tested on: Alternaria solani; assay: Greenhouse Alternaria solani test in tomato, preventive; type: in vivo; conditions: 24 h, tomato plants sprayed one day before inoculation, read-out: Efficacy (% control), disease severity vs untreated check
Description: Compounds were dissolved in 2% DMSO/Acetone & then mixed with water to calibrated spray volume of 50 ml. This 50 ml spray solution was poured into the spray bottles for further applications. To test the preventive activity of compounds, healthy young Tomato plants raised in the greenhouse were sprayed with active compound preparation at the stated application rates inside the spray cabinets using hallowcone nozzles. One day after treatment, the plants were inoculated with spore suspension (2% Malt) containing 0.24×10^6 Alternaria solani inoculum. The inoculated plants were then kept in greenhouse chamber at 22-24° C. temperature and 90-95% relative humidity for disease expression. […] Efficacy (% control) of the compounds was calculated by comparing the disease rating in the treatment with untreated control. The sprayed plants were also assessed for compound's phytotoxic effects by recording symptoms like necrosis, chlorosis and stunting.

[8] = tested on: Botrytis cinerea; assay: Botrytis cinerea (gray mold) in vitro test, radial growth on Potato Dextrose Agar; type: cell-based; conditions: 168 h, 300 ppm, seven days, 22° C., read-out: % (control) compared to the untreated check (radial growth)
[9] = tested on: Septoria lycopersici; assay: Septoria lycopersici (leaf spot of tomato) in vitro test, radial growth on Potato Dextrose Agar; type: cell-based; conditions: 168 h, seven days, 25° C., read-out: % control compared to the untreated check (radial growth)
[10] = tested on: Fusarium culmorum; assay: Greenhouse Fusarium culmorum test in wheat, preventive; type: in vivo; conditions: 24 h, read-out: Efficacy (% control), disease severity vs untreated check
Outline: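 Young greenhouse wheat sprayed preventively at stated rates (compounds in 2% DMSO/acetone, diluted in water), inoculated one day later with 2×10^6 Fusarium culmorum spores in 2% malt, held at 24 °C, 80-90% RH. Disease severity (0-100%) rated 3, 7, 10 and 15 days after application; % control versus untreated, phytotoxicity also recorded.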

[11] = tested on: Pyricularia oryzae; assay: whole plant or invertebrate; type: in vivo; conditions: 24 h, read-out: Efficacy (% control), disease severity vs untreated check

CCN(C)C=Nc1cc(C)c(Cc2ccccc2SC)cc1C [Compound 23, N′-(2,5-dimethyl-4-(2-(methylthio)benzyl)phenyl)-N-ethyl-N-methylformimidamide]
inhibition of growth at 300 ppm [1]: > 80%
inhibition of growth at 300 ppm [2]: 75%
pest or weed control at 500 ppm [3]: 70 to 100%
inhibition of growth at 300 ppm [4]: > 80%
inhibition of growth at 300 ppm [5]: > 75%
inhibition of growth at 300 ppm [6]: > 75%
pest or weed control at 500 ppm [7]: 70 to 100%
inhibition of growth at 300 ppm [8]: > 80%
inhibition of growth at 300 ppm [9]: > 70%
pest or weed control at 500 ppm [10]: 70 to 100%

CCN(C)C=Nc1cc(C)c(Cc2cc(C)ccc2C)cc1C [Compound 26, N′-(4-(2,5-dimethylbenzyl)-2,5-dimethylphenyl)-N-ethyl-N-methylformimidamide]
inhibition of growth at 300 ppm [1]: > 80%
inhibition of growth at 300 ppm [2]: 75%
inhibition of growth at 300 ppm [4]: > 80%
pest or weed control at 500 ppm [11]: 70 to 100%
inhibition of growth at 300 ppm [5]: > 75%
inhibition of growth at 300 ppm [6]: > 75%
inhibition of growth at 300 ppm [8]: > 80%
inhibition of growth at 300 ppm [9]: > 70%

CCN(C)C=Nc1cc(C)c(Cc2ccccc2C)cc1C [Compound 32, N′-(2,5-dimethyl-4-(2-methylbenzyl)phenyl)-N-ethyl-N-methylformimidamide]
inhibition of growth at 300 ppm [1]: > 80%
inhibition of growth at 300 ppm [2]: 75%
pest or weed control at 500 ppm [3]: 70 to 100%
inhibition of growth at 300 ppm [4]: > 80%
inhibition of growth at 300 ppm [5]: > 75%
inhibition of growth at 300 ppm [6]: > 75%
pest or weed control at 500 ppm [7]: 70 to 100%
inhibition of growth at 300 ppm [8]: > 80%
inhibition of growth at 300 ppm [9]: > 70%
pest or weed control at 500 ppm [10]: 70 to 100%

CCN(C)C=Nc1cc(C)c(Cc2ccc(C)cc2)cc1Cl [Compound 44, N′-(2-chloro-5-methyl-4-(4-methylbenzyl)phenyl)-N-ethyl-N-methylformimidamide]
inhibition of growth at 300 ppm [1]: > 80%
inhibition of growth at 300 ppm [2]: 75%
inhibition of growth at 300 ppm [4]: > 80%
pest or weed control at 500 ppm [11]: 70 to 100%
inhibition of growth at 300 ppm [5]: > 75%
inhibition of growth at 300 ppm [6]: > 75%
inhibition of growth at 300 ppm [8]: > 80%
inhibition of growth at 300 ppm [9]: > 70%

CCN(C)C=Nc1cc(C)c(Cc2cccc(OC(F)(F)F)c2)cc1C [Compound 51, N′-(2,5-dimethyl-4-(3-(trifluoromethoxy)benzyl)phenyl)-N-ethyl-N-methylformimidamide]
inhibition of growth at 300 ppm [1]: > 80%
inhibition of growth at 300 ppm [2]: 75%
inhibition of growth at 300 ppm [4]: > 80%
pest or weed control at 500 ppm [11]: 70 to 100%
inhibition of growth at 300 ppm [5]: > 75%
inhibition of growth at 300 ppm [6]: > 75%
inhibition of growth at 300 ppm [8]: > 80%
inhibition of growth at 300 ppm [9]: > 70%

Cc1cc(N=CN2CCOCC2)c(C)cc1Cc1ccccc1Cl [Compound 63, N-(4-(2-chlorobenzyl)-2,5-dimethylphenyl)-1-morpholinomethanimine]
inhibition of growth at 300 ppm [1]: > 80%
inhibition of growth at 300 ppm [2]: 75%
inhibition of growth at 300 ppm [4]: > 80%
pest or weed control at 500 ppm [11]: 70 to 100%
inhibition of growth at 300 ppm [5]: > 75%
inhibition of growth at 300 ppm [6]: > 75%
inhibition of growth at 300 ppm [8]: > 80%
inhibition of growth at 300 ppm [9]: > 70%

CCN(C)C=Nc1cc(C)c(Cc2ccccc2C(F)(F)F)cc1C [Compound 93, N′-(2,5-dimethyl-4-(2-(trifluoromethyl)benzyl)phenyl)-N-ethyl-N-methylformimidamide]
inhibition of growth at 300 ppm [1]: > 80%
inhibition of growth at 300 ppm [2]: 75%
inhibition of growth at 300 ppm [4]: > 80%
pest or weed control at 500 ppm [11]: 70 to 100%
inhibition of growth at 300 ppm [5]: > 75%
inhibition of growth at 300 ppm [6]: > 75%
inhibition of growth at 300 ppm [8]: > 80%
inhibition of growth at 300 ppm [9]: > 70%

CCN(C)C=Nc1cc(C)c(Cc2ccccc2C(F)(F)F)cc1Cl [Compound 103, N′-(2-chloro-5-methyl-4-(2-(trifluoromethyl)benzyl)phenyl)-N-ethyl-N-methylformimidamide]
inhibition of growth at 300 ppm [1]: > 80%
pest or weed control at 500 ppm [3]: 70 to 100%
inhibition of growth at 300 ppm [4]: > 80%
pest or weed control at 500 ppm [11]: 70 to 100%
inhibition of growth at 300 ppm [5]: > 75%
inhibition of growth at 300 ppm [6]: > 75%
inhibition of growth at 300 ppm [8]: > 80%

CCN(C)C=Nc1cc(C)c(Cc2ccc(F)cc2Cl)cc1C [Compound 110, N′-(4-(2-chloro-4-fluorobenzyl)-2,5-dimethylphenyl)-N-ethyl-N-methylformimidamide]
inhibition of growth at 300 ppm [1]: > 80%
inhibition of growth at 300 ppm [2]: 75%
inhibition of growth at 300 ppm [4]: > 80%
pest or weed control at 500 ppm [11]: 70 to 100%
inhibition of growth at 300 ppm [5]: > 75%
inhibition of growth at 300 ppm [6]: > 75%
inhibition of growth at 300 ppm [8]: > 80%
inhibition of growth at 300 ppm [9]: > 70%

CCN(C)C=Nc1cc(C)c(Cc2cccc(C)c2C)cc1C [Compound 112, N′-(4-(2,3-dimethylbenzyl)-2,5-dimethylphenyl)-N-ethyl-N-methylformimidamide]
inhibition of growth at 300 ppm [1]: > 80%
inhibition of growth at 300 ppm [2]: 75%
inhibition of growth at 300 ppm [4]: > 80%
pest or weed control at 500 ppm [11]: 70 to 100%
inhibition of growth at 300 ppm [5]: > 75%
inhibition of growth at 300 ppm [6]: > 75%
inhibition of growth at 300 ppm [9]: > 70%

CCN(C)C=Nc1cc(C)c(Cc2ccc(Cl)c(C)c2)cc1Cl [Compound 120, N′-(2-chloro-4-(4-chloro-3-methylbenzyl)-5-methylphenyl)-N-ethyl-N-methylformimidamide]
inhibition of growth at 300 ppm [1]: > 80%
inhibition of growth at 300 ppm [2]: 75%
inhibition of growth at 300 ppm [4]: > 80%
pest or weed control at 500 ppm [11]: 70 to 100%
inhibition of growth at 300 ppm [5]: > 75%
inhibition of growth at 300 ppm [6]: > 75%
inhibition of growth at 300 ppm [8]: > 80%

CCN(C)C=Nc1cc(C)c(Cc2cccc(Cl)c2Cl)cc1C [Compound 133, N′-(4-(2,3-dichlorobenzyl)-2,5-dimethylphenyl)-N-ethyl-N-methylformimidamide]
inhibition of growth at 300 ppm [1]: > 80%
pest or weed control at 500 ppm [3]: 70 to 100%
inhibition of growth at 300 ppm [4]: > 80%
pest or weed control at 500 ppm [11]: 70 to 100%
inhibition of growth at 300 ppm [5]: > 75%
inhibition of growth at 300 ppm [6]: > 75%
inhibition of growth at 300 ppm [8]: > 80%
inhibition of growth at 300 ppm [9]: > 70%

CCN(C)C=Nc1cc(C)c(Cc2cc(F)cc(Cl)c2)cc1C [Compound 135, N′-(4-(3-chloro-5-fluorobenzyl)-2,5-dimethylphenyl)-N-ethyl-N-methylformimidamide]
inhibition of growth at 300 ppm [1]: > 80%
inhibition of growth at 300 ppm [4]: > 80%
pest or weed control at 500 ppm [11]: 70 to 100%
inhibition of growth at 300 ppm [5]: > 75%
inhibition of growth at 300 ppm [6]: > 75%
inhibition of growth at 300 ppm [8]: > 80%
inhibition of growth at 300 ppm [9]: > 70%

CCN(C)C=Nc1cc(Cl)c(Cc2cccc(F)c2)cc1Cl [Compound 148, N′-(2,5-dichloro-4-(3-fluorobenzyl)phenyl)-N-ethyl-N-methylformimidamide]
pest or weed control at 500 ppm [11]: 70 to 100%
inhibition of growth at 300 ppm [5]: > 75%
inhibition of growth at 300 ppm [6]: > 75%

CCN(C)C=Nc1cc(C)c(Cc2cc(Cl)ccc2Cl)cc1C [Compound 160, N′-(4-(2,5-dichlorobenzyl)-2,5-dimethylphenyl)-N-ethyl-N-methylformimidamide]
inhibition of growth at 300 ppm [1]: > 80%
inhibition of growth at 300 ppm [2]: 75%
inhibition of growth at 300 ppm [4]: > 80%
inhibition of growth at 300 ppm [5]: > 75%
inhibition of growth at 300 ppm [6]: > 75%
pest or weed control at 500 ppm [7]: 70 to 100%
inhibition of growth at 300 ppm [8]: > 80%
inhibition of growth at 300 ppm [9]: > 70%
pest or weed control at 500 ppm [10]: 70 to 100%
